Reference: the supplement of paper PMC10307832

Key:
Assay in all cases: relative viability (nuclei count vs DMSO), 5 days (fraction); higher = more cells survive
XMD8-85 + Olaparib = compound: CN1CCN(CC1)C2=CC(=C(C=C2)NC3=NC=C4C(=N3)N(C5=CC=CC=C5C(=O)N4C)C)OC [XMD8-85] + O=C(c1cc(Cc2n[nH]c(=O)c3ccccc23)ccc1F)N1CCN(C(=O)C2CC2)CC1 [Olaparib] (partner 8 µM)
Procedure, shortened: (§1)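 Five library-drug doses in √10 steps were combined with a fixed anchor-drug dose, or a single drug was given alone, by pin tool to lung cancer cell lines in 1536-well plates the day after seeding. Nuclei were stained and counted after 5 days. Relative viability is the nuclei count in treated wells over that in vehicle wells, taken as the median of duplicate plates.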

4EGI-1 + Dasatinib = compound: O=C(O)C(Cc1ccccc1[N+](=O)[O-])=NNc1nc(-c2ccc(Cl)c(Cl)c2)cs1 (mixture of isomers) [4EGI-1] + Cc1nc(Nc2ncc(C(=O)Nc3c(C)cccc3Cl)s2)cc(N2CCN(CCO)CC2)n1 [Dasatinib] (partner 0.075 µM)
Procedure, shortened: as §1

XMD8-85 + Palbociclib = compound: CN1CCN(CC1)C2=CC(=C(C=C2)NC3=NC=C4C(=N3)N(C5=CC=CC=C5C(=O)N4C)C)OC [XMD8-85] + CC(=O)c1c(C)c2cnc(Nc3ccc(N4CCNCC4)cn3)nc2n(C2CCCC2)c1=O [Palbociclib] (partner 0.5 µM)
Procedure, shortened: as §1

XMD8-85 + Crizotinib = compound: CN1CCN(CC1)C2=CC(=C(C=C2)NC3=NC=C4C(=N3)N(C5=CC=CC=C5C(=O)N4C)C)OC [XMD8-85] + C[C@@H](Oc1cc(-c2cnn(C3CCNCC3)c2)cnc1N)c1c(Cl)ccc(F)c1Cl [Crizotinib] (partner 1 µM)
Procedure, shortened: as §1

## NCI-H1792
XMD8-85 + Olaparib; first compound 0.253 µM
  relative viability: 0.526
XMD8-85 + Olaparib; first compound 0.8 µM
  relative viability: 0.298
XMD8-85 + Olaparib; first compound 2.53 µM
  relative viability: 0.284
XMD8-85 + Olaparib; first compound 8 µM
  relative viability: 0.318
4EGI-1 + Dasatinib; first compound 0.5 µM
  relative viability: 1.03
4EGI-1 + Dasatinib; first compound 1.581 µM
  relative viability: 0.797
4EGI-1 + Dasatinib; first compound 5 µM
  relative viability: 0.74
4EGI-1 + Dasatinib; first compound 15.81 µM
  relative viability: 0.712
4EGI-1 + Dasatinib; first compound 50 µM
  relative viability: 0.671
XMD8-85 + Palbociclib; first compound 0.253 µM
  relative viability: 0.642
XMD8-85 + Palbociclib; first compound 2.53 µM
  relative viability: 0.835
XMD8-85 + Palbociclib; first compound 8 µM
  relative viability: 0.551
XMD8-85 + Crizotinib; first compound 0.08 µM
  relative viability: 0.883
XMD8-85 + Crizotinib; first compound 0.253 µM
  relative viability: 0.822
XMD8-85 + Crizotinib; first compound 2.53 µM
  relative viability: 0.852
XMD8-85 + Crizotinib; first compound 8 µM
  relative viability: 0.905
